Reference: patent US20250136576A1, “Heterocyclic Compounds and Uses Thereof” (ACEA Therapeutics, Inc., priority 2021, published 2025)

Test system: KM12-luc cells
Test: Cell proliferation and growth inhibition assay (CCK-8) in KM12-luc
Assay type: cell-based
Settings: KM12-Luc, 72 h, KM12-luc cells, treated with test compounds for 72 hrs, CCK-8 viability; read-out: NTRK IC50 in KM12-luc
How it was run: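 IC50 values were fitted by sigmoidal dose-response non-linear regression of CCK-8 OD450 absorbance after 1-4 hrs with reagent. Culture media were IMDM for MV-4-11, RPMI 1640 for H1975 and DMEM for KM12-luc, each with 10% FBS at 37 °C, 5% CO2.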

`CCN(CCN(C)C)c1ccc(Nc2ncc(C(F)(F)F)c(-c3c[nH]c4c(F)cccc34)n2)cc1NC(C)=O` [Compound 336, N-(2-((2-(dimethylamino)ethyl)(ethyl)amino)-5-((4-(7-fluoro-1H-indol-3-yl)-5-(trifluoromethyl)pyrimidin-2-yl)amino)phenyl)acetamide] was tested, and the IC50 was 64.8 nM.

`CN(C)CCN(C)c1cc(F)c(Nc2ncc(C(F)(F)F)c(-c3c[nH]c4c(F)cccc34)n2)cc1N` [Compound 339, N^1-(2-(dimethylamino)ethyl)-5-fluoro-N^4-(4-(7-fluoro-1H-indol-3-yl)-5-(trifluoromethyl)pyrimidin-2-yl)-N^1-methylbenzene-1,2,4-triamine] showed an IC50 of 75.2 nM.

In the case of `CC(=O)Nc1cc(Nc2ncc(C(F)(F)F)c(-c3c[nH]c4c(F)cccc34)n2)c(F)cc1N(C)CCN(C)C` [Compound 340, N-(2-((2-(dimethylamino)ethyl)(methyl)amino)-4-fluoro-5-((4-(7-fluoro-1H-indol-3-yl)-5-(trifluoromethyl)pyrimidin-2-yl)amino)phenyl)acetamide], the IC50 is reported as 57.4 nM.

Molecule `CC(=O)Nc1cc(Nc2ncc(C(F)(F)F)c(-c3c[nH]c4c(F)cccc34)n2)ccc1N(CCN(C)C)C(C)=O` [Compound 341, N-(2-acetamido-4-((4-(7-fluoro-1H-indol-3-yl)-5-(trifluoromethyl)pyrimidin-2-yl)amino)phenyl)-N-(2-(dimethylamino)ethyl)acetamide] has an IC50 of 248 nM.

`Cc1nc2cc(Nc3ncc(C(F)(F)F)c(-c4c[nH]c5c(F)cccc45)n3)ccc2n1CCN(C)C` [Compound 342, 1-(2-(dimethylamino)ethyl)-N-(4-(7-fluoro-1H-indol-3-yl)-5-(trifluoromethyl)pyrimidin-2-yl)-2-methyl-1H-benzo[d]imidazol-5-amine] was tested, and the IC50 was 24.6 nM.

Molecule `CC(=O)Nc1cc(Nc2ncc(C(F)(F)F)c(-c3cn(C)c4c(F)cccc34)n2)ccc1N(C)CCN(C)C` [Compound 346, N-(2-((2-(dimethylamino)ethyl)(methyl)amino)-5-((4-(7-fluoro-1-methyl-1H-indol-3-yl)-5-(trifluoromethyl)pyrimidin-2-yl)amino)phenyl)acetamide] has an IC50 of 105 nM.

Molecule `CN(C)CCN(C)c1ccc(Nc2ncc(C(F)(F)F)c(-c3cn(C)c4c(F)cccc34)n2)cc1N` [Compound 347, N^1-(2-(dimethylamino)ethyl)-N^4-(4-(7-fluoro-1-methyl-1H-indol-3-yl)-5-(trifluoromethyl)pyrimidin-2-yl)-N^1-methylbenzene-1,2,4-triamine] has an IC50 of 114 nM.

`CCN(CCN(C)C)c1ccc(Nc2ncc(C(F)(F)F)c(-c3cn(C)c4c(F)cccc34)n2)cc1NC(C)=O` [Compound 348, N-(2-((2-(dimethylamino)ethyl)(ethyl)amino)-5-((4-(7-fluoro-1-methyl-1H-indol-3-yl)-5-(trifluoromethyl)pyrimidin-2-yl)amino)phenyl)acetamide] was tested, and the IC50 was 87.8 nM.

In the case of `CCN(CCN(C)C)c1ccc(Nc2ncc(C(F)(F)F)c(-c3cn(C)c4c(F)cccc34)n2)cc1N` [Compound 349, N^1-(2-(dimethylamino)ethyl)-N^1-ethyl-N^4-(4-(7-fluoro-1-methyl-1H-indol-3-yl)-5-(trifluoromethyl)pyrimidin-2-yl)benzene-1,2,4-triamine], the IC50 is reported as 245 nM.

Molecule `CC(=O)Nc1cc(Nc2ncc(C(F)(F)F)c(-c3cn(C)c4c(F)cccc34)n2)ccc1N(CCN(C)C)C(C)=O` [Compound 350, N-(2-acetamido-4-((4-(7-fluoro-1-methyl-1H-indol-3-yl)-5-(trifluoromethyl)pyrimidin-2-yl)amino)phenyl)-N-(2-(dimethylamino)ethyl)acetamide] has an IC50 of 126 nM.

With `Cc1nc2cc(Nc3ncc(C(F)(F)F)c(-c4cn(C)c5c(F)cccc45)n3)ccc2n1CCN(C)C` [Compound 351, 1-(2-(dimethylamino)ethyl)-N-(4-(7-fluoro-1-methyl-1H-indol-3-yl)-5-(trifluoromethyl)pyrimidin-2-yl)-2-methyl-1H-benzo[d]imidazol-5-amine] the IC50 was 172 nM.

With `CC(=O)Nc1cc(Nc2ncc(C(F)(F)F)c(-c3cn(C)c4c(F)cccc34)n2)ccc1OCCN(C)C` [Compound 352, N-(2-(2-(dimethylamino)ethoxy)-5-((4-(7-fluoro-1-methy-1H-indol-3-yl)-5-(trifluoromethyl)pyrimidin-2-yl)amino)phenyl)acetamide] the IC50 was 42.1 nM.

Molecule `CC(=O)Nc1cc(Nc2ncc(C(F)(F)F)c(-c3cn(C)c4cc(F)c(F)cc34)n2)ccc1N(C)CCN(C)C` [Compound 355, N-(5-((4-(5,6-difluoro-1-methyl-1H-indol-3-yl)-5-(trifluoromethyl)pyrimidin-2-yl)amino)-2-((2-(dimethylamino)ethyl)(methyl)amino)phenyl)acetamide] has an IC50 of 70.4 nM.

For `CC(=O)Nc1cc(Nc2ncc(C(F)(F)F)c(-c3cn(C)c4ccc(C)cc34)n2)ccc1N(C)CCN(C)C` [Compound 356, N-(5-((4-(1,5-dimethyl-1H-indol-3-yl)-5-(trifluoromethyl)pyrimidin-2-yl)amino)-2-((2-(dimethylamino)ethyl)(methyl)amino)phenyl)acetamide], the IC50 was 327 nM.

Molecule `COc1ccc2c(c1)c(-c1nc(Nc3ccc(N(C)CCN(C)C)c(NC(C)=O)c3)ncc1C(F)(F)F)cn2C` [Compound 357, N-(2-((2-(dimethylamino)ethyl)(methyl)amino)-5-((4-(5-methoxy-1-methyl-1H-indol-3-yl) 5-(trifluoromethyl)pyrimidin-2-yl)amino)phenyl)acetamide] has an IC50 of 1080 nM.

`CC(=O)Nc1cc(Nc2ncc(C(F)(F)F)c(-c3c[nH]c4c(C)cccc34)n2)ccc1N(CCN(C)C)C(C)=O` [Compound 363, N-(2-acetamido-4-((4-(7-methyl-1H-indol-3-yl)-5-(trifluoromethyl)pyrimidin-2-yl)amino)phenyl)-N-(2-(dimethylamino)ethyl)acetamide] showed an IC50 of 93.4 nM.

`Cc1cccc2c(-c3nc(Nc4ccc5c(c4)nc(C)n5CCN(C)C)ncc3C(F)(F)F)c[nH]c12` [Compound 364, 1-(2-(dimethylamino)ethyl)-2-methyl-N-(4-(7-methyl-1H-indol-3-yl)-5-(trifluoromethyl)pyrimidin-2-yl)-1H-benzo[d]imidazol-5-amine] was tested, and the IC50 was 20.1 nM.

In the case of `Cc1cccc2c(-c3nc(Nc4ccc(N(C)CCN(C)C)c(N)c4)ncc3C(F)(F)F)cn(C)c12` [Compound 369, N^4-(4-(1,7-dimethyl-1H-indol-3-yl)-5-(trifluoromethyl)pyrimidin-2-yl)-N^1-(2-(dimethylamino)ethyl)-N^1-methylbenzene-1,2,4-triamine], the IC50 is reported as 27.6 nM.

`CC(=O)Nc1cc(Nc2ncc(C(F)(F)F)c(-c3cn(C)c4c(C)cccc34)n2)ccc1N(CCN(C)C)C(C)=O` [Compound 370, N-(2-acetamido-4-((4-(1,7-dimethyl-1H-indol-3-yl)-5-(trifluoromethyl)pyrimidin-2-yl)amino)phenyl)-N-(2-(dimethylamino)ethyl)acetamide] was tested, and the IC50 was 77.1 nM.

`Cc1cccc2c(-c3nc(Nc4ccc5c(c4)nc(C)n5CCN(C)C)ncc3C(F)(F)F)cn(C)c12` [Compound 371, N-(4-(1,7-dimethyl-1H-indol-3-yl)-5-(trifluoromethyl)pyrimidin-2-yl)-1-(2-(dimethylamino)ethyl)-2-methyl-1H-benzo[d]imidazol-5-amine] gave an IC50 of 110 nM.

`CC(=O)Nc1cc(Nc2ncc(C(F)(F)F)c(-c3cn(C)c4c(C)cccc34)n2)ccc1OCCN(C)C` [Compound 372, N-(5-((4-(1,7-dimethyl-1H-indol-3-yl)-5-(trifluoromethyl)pyrimidin-2-yl)amino)-2-(2-(dimethylamino)ethoxy)phenyl)acetamide] showed an IC50 of 30.2 nM.

In the case of `COc1cccc2c(-c3nc(Nc4ccc(N(CCN(C)C)C(C)=O)c(NC(C)=O)c4)ncc3C(F)(F)F)c[nH]c12` [Compound 379, N-(2-acetamido-4-((4-(7-methoxy-1H-indol-3-yl)-5-(trifluoromethyl)pyrimidin-2-yl)amino)phenyl)-N-(2-(dimethylamino)ethyl)acetamide], the IC50 is reported as 149 nM.

Work on `COc1cccc2c(-c3nc(Nc4ccc5c(c4)nc(C)n5CCN(C)C)ncc3C(F)(F)F)c[nH]c12` [Compound 380, 1-(2-(dimethylamino)ethyl)-N-(4-(7-methoxy-1H-indol-3-yl)-5-(trifluoromethyl)pyrimidin-2-yl)-2-methyl-1H-benzo[d]imidazol-5-amine] yielded an IC50 of 50.5 nM.

Molecule `COc1cccc2c(-c3nc(Nc4ccc(N(C)CCN(C)C)c(N)c4)ncc3C(F)(F)F)cn(C)c12` [Compound 385, N^1-(2-(dimethylamino)ethyl)-N^4-(4-(7-methoxy-1-methyl-1H-indol-3-yl)-5-(trifluoromethyl)pyrimidin-2-yl)-N^1-methylbenzene-1,2,4-triamine] has an IC50 of 45.3 nM.

In the case of `COc1cccc2c(-c3nc(Nc4ccc(N(CCN(C)C)C(C)=O)c(NC(C)=O)c4)ncc3C(F)(F)F)cn(C)c12` [Compound 386, N-(2-acetamido-4-((4-(7-methoxy-1-methyl-1H-indol-3-yl)-5-(trifluoromethyl)pyrimidin-2-yl)amino)phenyl)-N-(2-(dimethylamino)ethyl)acetamide], the IC50 is reported as 43.9 nM.

`COc1cccc2c(-c3nc(Nc4ccc5c(c4)nc(C)n5CCN(C)C)ncc3C(F)(F)F)cn(C)c12` [Compound 387, 1-(2-(dimethylamino)ethyl)-N-(4-(7-methoxy-1-methyl-1H-indol-3-yl)-5-(trifluoromethyl)pyrimidin-2-yl)-2-methyl-1H-benzo[d]imidazol-5-amine] showed an IC50 of 114 nM.

Work on `COc1cccc2c(-c3nc(Nc4ccc(OCCN(C)C)c(NC(C)=O)c4)ncc3C(F)(F)F)cn(C)c12` [Compound 388, N-(2-(2-(dimethylamino)ethoxy)-5-((4-(7-methoxy-1-methyl-1H-indol-3-yl)-5-(trifluoromethyl)pyrimidin-2-yl)amino)phenyl)acetamide] yielded an IC50 of 44.8 nM.

With `CCn1cc(-c2nc(Nc3ccc(N(C)CCN(C)C)c(NC(C)=O)c3)ncc2C(F)(F)F)c2cc(F)ccc21` [Compound 391, N-(2-((2-(dimethylamino)ethyl)(methyl)amino)-5-((4-(1-ethyl-5-fluoro-1H-indol-3-yl)-5-(trifluoromethyl)pyrimidin-2-yl)amino)phenyl)acetamide] the IC50 was 50 nM.
